{"source": "patent US7206699B2", "about": "“Methods for measuring therapy resistance” (Virco N.V., priority 2000, dated 2007)", "system": "HIV-1", "details": "for Geometric Mean Phenotype: fold change in IC50 vs wild type; for Average Phenotype (log): log fold change", "key": {"[1]": {"details": "RT codon 41 ANY, 184 ANY, 215 ANY, N 13255"}, "[2]": {"details": "RT codon 41 L, 184 WT, 215 WT, N 54"}, "[3]": {"details": "RT codon 41 WT, 184 V/I, 215 F/Y, N 673"}, "[4]": {"details": "RT codon 41 WT, 184 V/I, 215 WT, N 2172"}, "[5]": {"details": "RT codon 41 WT, 184 WT, 215 WT, N 4826"}}, "note": "Read-outs that look alike come from different tables or passages of the source.", "source_text": "The whole process can be divided into three phases: molecular biology, transfection and susceptibility testing.\n• Viral RNA fragments extracted from patient's blood sample • Complementary DNA (cDNA) of the gag-PR-RT sequence, through to codon 400 formed via reverse transcription • Gag-PT-RT sequence multiplied using two rounds of PCR • Purification of the DNA fragments • Creation of laboratory proviral clone with gag-PR-RT sequence deleted • Insertion of the clone into bacterial plasmids for reproduction of large quantities. Transfection This is the process by which viral genes are transferred to a cell. • 1. The gag-PR-RT sequences from the patient sample and the plasmid fragments are mixed with CD4+, MT4 cells. • 2. Electroporation takes place: the cells are subject to a short (milliseconds), but strong current in a cuvette producing transient openings in the cell membrane, through which both the gag-PR-RT DNA fragment and the plasmid fragment enter. • 3. In a relatively small proportion of the cells, both fragments will meet up and, probably supported by a cellular enzyme, recombine to form a complete HIV-1 genome that can now be converted into infectious virus particles. • 4. The recombinant virus is then grown in this cell culture for approximately 8 days, until the cytopathogenic effect or CPE reaches a sufficient level. • 5. The medium is then centrifuged to separate out the cells and the supernatant contains large quantities of recombinant virus—the virus stock harvest. • 6. The virus is then titrated to achieve a known concentration. Susceptibility Testing\nDifferent concentrations of the antiviral agents are placed in the 384 microwells of a microtiter test plate. Several wells are used for each concentration and the mean results used to increase reliability. • 2. A set dilution of the recombinant virus stock or wild type control virus is added to each microwell. • 3. A set dilution of MT4 cells containing a fluorescent reporter gene system is also added to each microwell. • 4. The plate is incubated for 3 days during which time the recombinant virus will replicate in the MT4 cells unless inhibited by the antiviral drug. Replication triggers the reporter gene, which produces proteins which fluoresce. • 5. The amount of viral replication at each concentration of drug is measured by computerized spectrophotometry, relative to the wild type virus controls. • 6. The susceptibility of the virus to each drug is expressed as a fold change in IC50 relative to wild type virus. • 7.\nPlasma samples were obtained from patients and submitted to laboratories for routine assessment of drug susceptibility."}
{"compound": "Cc1cn([C@H]2C[C@H](N=[N+]=[N-])[C@@H](CO)O2)c(=O)[nH]c1=O", "note": "[AZT, zidovudine]", "values": [{"measurement": "Geometric Mean Phenotype", "setting": "[1]", "value": 3.9, "unit": "fold"}, {"measurement": "Geometric Mean Phenotype", "setting": "[2]", "value": 1.7, "unit": "fold"}, {"measurement": "Geometric Mean Phenotype", "setting": "[3]", "value": 6.2, "unit": "fold"}, {"measurement": "Geometric Mean Phenotype", "setting": "[4]", "value": 1.3, "unit": "fold"}, {"measurement": "Geometric Mean Phenotype", "setting": "[5]", "value": 1.3, "unit": "fold"}, {"measurement": "mean fold resistance, increase", "setting": "genetic clusters with multiple mutations conferring AZT resistance, FIG. 8", "value": "~100", "unit": "fold"}, {"measurement": "effect of including the 184V mutation together with AZT resistance mutations", "setting": "genetic clusters with vs without 184V/I, FIG. 8", "value": "substantial reduction in the predicted magnitude of AZT resistance"}, {"measurement": "Average Phenotype (log)", "setting": "[1]", "value": 0.59}, {"measurement": "Average Phenotype (log)", "setting": "[2]", "value": 0.24}, {"measurement": "Average Phenotype (log)", "setting": "[3]", "value": 0.79}, {"measurement": "Average Phenotype (log)", "setting": "[4]", "value": 0.10}, {"measurement": "Average Phenotype (log)", "setting": "[5]", "value": 0.12}, {"measurement": "mean fold resistance of genetic cluster, in words", "setting": "virus harbouring the 184V mutation, FIG. 8", "value": "slightly reduced level of susceptibility"}]}
